# Laboratory results as given in patent US20020137929A1, “1 - (3-heterocyclylphenyl) isothiourea, -isourea, -guanidine and -amidine herbicidal agents” (Intellectual Property Department, BASF Aktiengesellschaft, priority 1998, published 2002).
# Columns and labels:
# [1] = tested on: IPOHE (Morningglory, Ivyleaf); assay: Postemergence herbicidal evaluation; assay type: in vivo, Ipomoea hederacea; settings: postemergence
# Outline: (§1)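 Seedlings grown about two weeks were sprayed at 40 psi with compound dispersed in 50/50 acetone/water plus 0.5% TWEEN 20, at about 0.0156 to 0.500 kg/ha. Plants were kept in the greenhouse and scored 4–5 weeks later on a 0–9 visual scale against untreated controls.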
# ECHCG (Barnyardgrass) = assay: Preemergence herbicidal evaluation; assay type: in vivo, Echinochloa crus-galli; settings: rated 4-5 weeks after treatment
# Outline: (§2)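 Preemergence soil application of compound, sprayed in aqueous acetone at rates equivalent to about 0.0156 to 0.500 kg per hectare onto freshly sown cups. Plant response was judged by eye on a 0-9 scale four to five weeks later.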
# [2] = tested on: SAGPY (Arrowhead (Pygmaea)); assay: Preemergence weed control under flooded paddy conditions; assay type: in vivo, Sagittaria pygmaea; settings: rated 3-4 weeks after treatment
# Outline: (§3)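 Using flooded silt loam (water 1.5 to 3 cm deep), seeds sown in the top 0.5 cm were exposed preemergence to compound pipetted into the flood at about 0.0313 to 0.500 kg/ha. Effects were scored 0-9 by eye three to four weeks later.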
# ZEAMX (Corn, Field) = assay: Postemergence herbicidal evaluation; assay type: in vivo, Zea mays; settings: postemergence
# Outline: as §1
# AMBEL (Ragweed, Common) [3] = assay: Postemergence herbicidal evaluation; assay type: in vivo, Ambrosia artemisifolia; settings: postemergence
# Outline: as §1
# ABUTH (Velvetleaf) = assay: Preemergence herbicidal evaluation; assay type: in vivo, Abutilon theophrasti; settings: rated 4-5 weeks after treatment
# Outline: as §2
# AMBEL (Ragweed, Common) [4] = assay: Preemergence herbicidal evaluation; assay type: in vivo, Ambrosia artemisifolia; settings: rated 4-5 weeks after treatment
# Outline: as §2
# CYPSE (Flatsedge) = assay: Preemergence weed control under flooded paddy conditions; assay type: in vivo, Cyperus serotinus; settings: rated 3-4 weeks after treatment
# Outline: as §3
# GALAP (Galium) = assay: Preemergence herbicidal evaluation; assay type: in vivo, Galium aparine; settings: rated 4-5 weeks after treatment
# Outline: as §2
# CASOB (Sicklepod) = assay: Preemergence herbicidal evaluation; assay type: in vivo, Cassia obtusifolia; settings: rated 4-5 weeks after treatment
# Outline: as §2
# SETVI (Foxtail, Green) = assay: Preemergence herbicidal evaluation; assay type: in vivo, Setaria viridis; settings: rated 4-5 weeks after treatment
# Outline: as §2
# [5] = tested on: GLXMAW (Soybean, Williams); assay: Preemergence herbicidal evaluation; assay type: in vivo, Glycine max, (L.) Merr. cv Williams; settings: rated 4-5 weeks after treatment
# Outline: as §2
# [6] = tested on: GLXMAW (Soybean, Williams); assay: Postemergence herbicidal evaluation; assay type: in vivo, Glycine max, (L.) Merr. cv Williams; settings: postemergence
# Outline: as §1
compound,measurement,setting,value
"COCCOC(=O)CN1C(=O)CSC1=Nc1cc(-n2c(=O)cc(C(F)(F)F)n(C)c2=O)c(F)cc1Cl [Compound 107, 2-Methoxyethyl 2-{{2-chloro-5-[3,6-dihydro-3-methyl-2,6-dioxo-4-(trifluoromethyl)-1(2H)-pyrimidinyl]-4-fluorophenyl}imino}-4-oxo-3-thiazolidineacetate]",herbicidal rating IPOHE,[1]; rate 0.0158 kg/ha,9.0
same,herbicidal rating IPOHE,[1]; rate 0.0315 kg/ha,7.0
same,herbicidal rating IPOHE,[1]; rate 0.0630 kg/ha,9.0
same,Preemergence herbicidal rating ECHCG,ECHCG (Barnyardgrass); rate 0.0313 kg/ha,0.0
same,Preemergence herbicidal rating ECHCG,ECHCG (Barnyardgrass); rate 0.0625 kg/ha,0.0
same,Preemergence herbicidal rating ECHCG,ECHCG (Barnyardgrass); rate 0.1250 kg/ha,0.0
same,Preemergence herbicidal rating ECHCG,ECHCG (Barnyardgrass); rate 0.2500 kg/ha,1.0
same,SAGPY herbicidal effect rating,[2]; 0.0313 kg/ha,0.0
same,SAGPY herbicidal effect rating,[2]; 0.0625 kg/ha,0.0
same,SAGPY herbicidal effect rating,[2]; 0.1250 kg/ha,0.0
same,SAGPY herbicidal effect rating,[2]; 0.2500 kg/ha,3.0
same,herbicidal rating ZEAMX,"ZEAMX (Corn, Field); rate 0.0158 kg/ha",4.0
same,herbicidal rating ZEAMX,"ZEAMX (Corn, Field); rate 0.0315 kg/ha",6.0
same,herbicidal rating ZEAMX,"ZEAMX (Corn, Field); rate 0.0630 kg/ha",7.0
same,herbicidal rating AMBEL,"AMBEL (Ragweed, Common) [3]; rate 0.0158 kg/ha",2.0
same,herbicidal rating AMBEL,"AMBEL (Ragweed, Common) [3]; rate 0.0315 kg/ha",2.0
same,herbicidal rating AMBEL,"AMBEL (Ragweed, Common) [3]; rate 0.0630 kg/ha",2.0
same,Preemergence herbicidal rating ABUTH,ABUTH (Velvetleaf); rate 0.0313 kg/ha,0.0
same,Preemergence herbicidal rating ABUTH,ABUTH (Velvetleaf); rate 0.0625 kg/ha,1.0
same,Preemergence herbicidal rating ABUTH,ABUTH (Velvetleaf); rate 0.1250 kg/ha,9.0
same,Preemergence herbicidal rating ABUTH,ABUTH (Velvetleaf); rate 0.2500 kg/ha,9.0
same,Preemergence herbicidal rating AMBEL,"AMBEL (Ragweed, Common) [4]; rate 0.0313 kg/ha",0.0
same,Preemergence herbicidal rating AMBEL,"AMBEL (Ragweed, Common) [4]; rate 0.0625 kg/ha",0.0
same,Preemergence herbicidal rating AMBEL,"AMBEL (Ragweed, Common) [4]; rate 0.1250 kg/ha",0.0
same,Preemergence herbicidal rating AMBEL,"AMBEL (Ragweed, Common) [4]; rate 0.2500 kg/ha",2.0
same,CYPSE herbicidal effect rating,CYPSE (Flatsedge); 0.0313 kg/ha,0.0
same,CYPSE herbicidal effect rating,CYPSE (Flatsedge); 0.0625 kg/ha,0.0
same,CYPSE herbicidal effect rating,CYPSE (Flatsedge); 0.1250 kg/ha,0.0
same,Preemergence herbicidal rating GALAP,GALAP (Galium); rate 0.0313 kg/ha,1.0
same,Preemergence herbicidal rating GALAP,GALAP (Galium); rate 0.0625 kg/ha,1.0
same,Preemergence herbicidal rating GALAP,GALAP (Galium); rate 0.1250 kg/ha,7.0
same,Preemergence herbicidal rating GALAP,GALAP (Galium); rate 0.2500 kg/ha,7.0
same,Preemergence herbicidal rating CASOB,CASOB (Sicklepod); rate 0.0313 kg/ha,0.0
same,Preemergence herbicidal rating CASOB,CASOB (Sicklepod); rate 0.0625 kg/ha,0.0
same,Preemergence herbicidal rating CASOB,CASOB (Sicklepod); rate 0.1250 kg/ha,0.0
same,Preemergence herbicidal rating CASOB,CASOB (Sicklepod); rate 0.2500 kg/ha,1.0
same,Preemergence herbicidal rating SETVI,"SETVI (Foxtail, Green); rate 0.0313 kg/ha",0.0
same,Preemergence herbicidal rating SETVI,"SETVI (Foxtail, Green); rate 0.0625 kg/ha",1.0
same,Preemergence herbicidal rating SETVI,"SETVI (Foxtail, Green); rate 0.1250 kg/ha",0.0
same,Preemergence herbicidal rating SETVI,"SETVI (Foxtail, Green); rate 0.2500 kg/ha",7.0
same,Preemergence herbicidal rating GLXMAW,[5]; rate 0.0313 kg/ha,0.0
same,Preemergence herbicidal rating GLXMAW,[5]; rate 0.0625 kg/ha,1.0
same,Preemergence herbicidal rating GLXMAW,[5]; rate 0.1250 kg/ha,2.0
same,Preemergence herbicidal rating GLXMAW,[5]; rate 0.2500 kg/ha,3.0
same,herbicidal rating GLXMAW,[6]; rate 0.0158 kg/ha,4.5
same,herbicidal rating GLXMAW,[6]; rate 0.0315 kg/ha,5.0
same,herbicidal rating GLXMAW,[6]; rate 0.0630 kg/ha,5.5
"Cn1c(C(F)(F)F)cc(=O)n(-c2cc(N=C3SCC(=O)N3CC(F)(F)F)c(Cl)cc2F)c1=O [Compound 163, 3-{4-Chloro-2-fluoro-5-{[4-oxo-3-(2,2,2-trifluoroethyl)-2-thiazolidinylidene]amino}phenyl}-1-methyl-6-(trifluoromethyl)-2,4(1H,3H)-pyrimidinedione]",herbicidal rating IPOHE,[1]; rate 0.0156 kg/ha,9.0
same,herbicidal rating IPOHE,[1]; rate 0.0313 kg/ha,9.0
same,herbicidal rating IPOHE,[1]; rate 0.0625 kg/ha,9.0
same,Preemergence herbicidal rating ECHCG,ECHCG (Barnyardgrass); 0.0156 kg/ha,2.0
same,Preemergence herbicidal rating ECHCG,ECHCG (Barnyardgrass); 0.0313 kg/ha,4.0
same,Preemergence herbicidal rating ECHCG,ECHCG (Barnyardgrass); 0.0625 kg/ha,7.0
same,Preemergence herbicidal rating ECHCG,ECHCG (Barnyardgrass); 0.1250 kg/ha,8.0
same,Preemergence herbicidal rating ECHCG,ECHCG (Barnyardgrass); 0.2500 kg/ha,9.0
same,"herbicidal effect rating, SAGPY",[2]; 0.0313 kg/ha,2.0
same,"herbicidal effect rating, SAGPY",[2]; 0.0625 kg/ha,3.0
same,"herbicidal effect rating, SAGPY",[2]; 0.1250 kg/ha,6.0
same,"herbicidal effect rating, SAGPY",[2]; 0.2500 kg/ha,7.0
same,herbicidal rating ZEAMX,"ZEAMX (Corn, Field); rate 0.0156 kg/ha",5.0
same,herbicidal rating ZEAMX,"ZEAMX (Corn, Field); rate 0.0313 kg/ha",5.5
same,herbicidal rating ZEAMX,"ZEAMX (Corn, Field); rate 0.0625 kg/ha",5.5
same,herbicidal rating AMBEL,"AMBEL (Ragweed, Common) [3]; rate 0.0156 kg/ha",9.0
same,herbicidal rating AMBEL,"AMBEL (Ragweed, Common) [3]; rate 0.0313 kg/ha",9.0
same,herbicidal rating AMBEL,"AMBEL (Ragweed, Common) [3]; rate 0.0625 kg/ha",9.0
same,Preemergence herbicidal rating ABUTH,ABUTH (Velvetleaf); 0.0156 kg/ha,9.0
same,Preemergence herbicidal rating ABUTH,ABUTH (Velvetleaf); 0.0313 kg/ha,9.0
same,Preemergence herbicidal rating ABUTH,ABUTH (Velvetleaf); 0.0625 kg/ha,9.0
same,Preemergence herbicidal rating ABUTH,ABUTH (Velvetleaf); 0.1250 kg/ha,9.0
same,Preemergence herbicidal rating ABUTH,ABUTH (Velvetleaf); 0.2500 kg/ha,9.0
same,Preemergence herbicidal rating AMBEL,"AMBEL (Ragweed, Common) [4]; 0.0156 kg/ha",0.0
same,Preemergence herbicidal rating AMBEL,"AMBEL (Ragweed, Common) [4]; 0.0313 kg/ha",3.0
same,Preemergence herbicidal rating AMBEL,"AMBEL (Ragweed, Common) [4]; 0.0625 kg/ha",9.0
same,Preemergence herbicidal rating AMBEL,"AMBEL (Ragweed, Common) [4]; 0.1250 kg/ha",9.0
same,Preemergence herbicidal rating AMBEL,"AMBEL (Ragweed, Common) [4]; 0.2500 kg/ha",9.0
same,"herbicidal effect rating, CYPSE",CYPSE (Flatsedge); 0.1250 kg/ha,9.0
same,"herbicidal effect rating, CYPSE",CYPSE (Flatsedge); 0.2500 kg/ha,9.0
same,Preemergence herbicidal rating GALAP,GALAP (Galium); 0.0156 kg/ha,0.0
same,Preemergence herbicidal rating GALAP,GALAP (Galium); 0.0313 kg/ha,0.0
same,Preemergence herbicidal rating GALAP,GALAP (Galium); 0.0625 kg/ha,0.0
same,Preemergence herbicidal rating GALAP,GALAP (Galium); 0.1250 kg/ha,0.0
same,Preemergence herbicidal rating GALAP,GALAP (Galium); 0.2500 kg/ha,3.0
same,Preemergence herbicidal rating CASOB,CASOB (Sicklepod); 0.0156 kg/ha,0.0
same,Preemergence herbicidal rating CASOB,CASOB (Sicklepod); 0.0313 kg/ha,0.0
same,Preemergence herbicidal rating CASOB,CASOB (Sicklepod); 0.0625 kg/ha,0.0
same,Preemergence herbicidal rating CASOB,CASOB (Sicklepod); 0.1250 kg/ha,0.0
same,Preemergence herbicidal rating CASOB,CASOB (Sicklepod); 0.2500 kg/ha,5.0
same,Preemergence herbicidal rating SETVI,"SETVI (Foxtail, Green); 0.0156 kg/ha",9.0
same,Preemergence herbicidal rating SETVI,"SETVI (Foxtail, Green); 0.0313 kg/ha",9.0
same,Preemergence herbicidal rating SETVI,"SETVI (Foxtail, Green); 0.0625 kg/ha",9.0
same,Preemergence herbicidal rating SETVI,"SETVI (Foxtail, Green); 0.1250 kg/ha",9.0
same,Preemergence herbicidal rating SETVI,"SETVI (Foxtail, Green); 0.2500 kg/ha",9.0
same,Preemergence herbicidal rating GLXMAW,[5]; 0.0156 kg/ha,0.0
same,Preemergence herbicidal rating GLXMAW,[5]; 0.0313 kg/ha,2.0
same,Preemergence herbicidal rating GLXMAW,[5]; 0.0625 kg/ha,3.0
same,Preemergence herbicidal rating GLXMAW,[5]; 0.1250 kg/ha,3.0
same,Preemergence herbicidal rating GLXMAW,[5]; 0.2500 kg/ha,5.0
same,herbicidal rating GLXMAW,[6]; rate 0.0156 kg/ha,6.0
same,herbicidal rating GLXMAW,[6]; rate 0.0313 kg/ha,7.0
same,herbicidal rating GLXMAW,[6]; rate 0.0625 kg/ha,8.0
